Experiment: gradient 5% acetonitrile 3 min, to 50% in 2 min, to 85% in 15 min, held 3 min, 100 µL/min
Details: column: Zorbax Extend-C18 2.1 x 50 mm; eluents: water / acetonitrile, 0.1% formic acid
In short: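 The mobile phases were water and acetonitrile, each with 0.1% formic acid, pumped at 100 μL/min through a Zorbax Extend-C18 column (2.1 × 50 mm, 1.8 μm). Pure standards were injected as mixtures of ~100 molecules and detected by a quadrupole time-of-flight mass spectrometer in positive and negative ionization mode. Retention time came from computationally picked adduct peaks, each inspected by hand.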

RP-LC retention time | SMILES
840 s | CC(=O)c1cccc(NC(=O)c2cccc(Br)c2)c1
612 s | Cc1nnc(C2CC3(CCN(CC(C)C)CC3)CN2CCc2ccccc2)o1 (stereo unspecified)
854 s | CCc1cc(=O)n(CC(=O)Nc2cc(C)ccc2OC)c(N2CCOCC2)n1
891 s | Cc1cccc(C2CCCN2C(=O)c2c(Cl)cnn2C)c1 (stereo unspecified)
766 s | CC(=O)N(Cc1nn(C)c2c1CN(S(=O)(=O)c1ccccc1)CC2)c1ccccc1
844 s | Cc1noc(-c2cccc(OC3CN(C(=O)Nc4ccccc4)C3)c2)n1
720 s | CCn1cc(-c2nc(CC(=O)Nc3ccc(F)cc3Cl)cs2)c2cccnc21
876 s | CCCn1cc(S(=O)(=O)Nc2ccc(OC)c(OC)c2)c2cccnc21
608 s | O=C(c1nc(-c2ccnc(N3CCOCC3)c2)no1)N1CCN(C2CCCCC2)CC1
1160 s | O=S(=O)(c1cccc(Br)c1)N1CCc2nc(-c3ccc(F)cc3)ncc2C1
718 s | COc1ccc(S(=O)(=O)N2CCC(n3cnnc3-c3ccccc3)CC2)cc1OC
943 s | CCN1C(=O)C(C)(C)COc2cc(NC(=O)Nc3ccccc3C(F)(F)F)ccc21
728 s | CN(C)c1cccc(C(=O)NCC(=O)N2CCCc3ccccc32)c1
656 s | Cn1c(CNC(=O)C2CCC2)nc2c1CN(C(=O)c1ccc(C(F)(F)F)s1)CC2
571 s | O=C(CCCN1C(=O)c2cccc3cccc(c23)C1=O)Nc1cccnc1
812 s | Cc1nn(-c2ccc(Cl)cc2)c(C)c1S(=O)(=O)Nc1ccc(S(N)(=O)=O)cc1
1200 s | CCOc1ccc(NC(=O)c2c(C)sc3ncnc(N4CCCC(C)C4)c23)cc1 (stereo unspecified)
1260 s | CC1CCN(c2ccc(-c3noc(CN4C(=O)COc5ccccc54)n3)cc2)CC1
846 s | COc1ccc(C(=O)COC(=O)c2cccs2)cc1
787 s | O=C(NCc1ccc2c(c1)OCO2)c1nc2ccccn2c1-c1ccsc1
612 s | Cc1cc(N2CCN(C(=O)c3ccccc3)CC2)nc(N2CCOCC2)n1
659 s | O=C(c1ccoc1)N1CCc2c(c(CO)nn2Cc2ccccc2)C1
651 s | COCCCNC(=O)C1c2ccccc2CC(=O)N1C(C)C (stereo unspecified)

RP-LC retention time | SMILES
660 s | CCN1CCCC(C(=O)NCc2cccc(OC)c2OC)(c2ccccc2)CC1 (stereo unspecified)
605 s | CC(C)CN1CCn2cc(C(=O)N3CCN(c4ccccc4)CC3)nc2C1
827 s | CCN1c2ccc(F)cc2C(=O)NC12CCN(C(=O)c1cccc(C)c1)CC2
636 s | O=C(c1cn(-c2cc(N3CCCCC3)ncn2)cn1)N1CCN(c2ccccn2)CC1
824 s | Cc1ccc(NC(=O)Cn2ccc3ccc(-c4nnc(C)o4)cc32)cc1
719 s | O=C(CC1CCCCC1)Nc1ccc(-c2nnc3n2CCCC3)cc1
974 s | CCOc1ccccc1NS(=O)(=O)c1c(C(=O)OC)sc2cccc(F)c12
879 s | COc1ccc(OCc2ccc(C(=O)Nc3ccc4c(c3)OCO4)o2)cc1
1140 s | C(=C\c1ccc(/C=C/c2ccccc2)nn1)/c1ccccc1
894 s | CCOC(=O)c1c(C)n(C)c2ccc(OC(C)C(=O)OC)cc12 (stereo unspecified)
844 s | COc1cccc(CNC(=O)c2c(C)oc3ccn(C)c(=O)c23)c1
742 s | CN(CC1(C)CCOCC1)C(=O)COc1ccccc1
708 s | CC(=O)N1CCc2sc(C(=O)NC(C)c3ccccc3)cc2C1 (stereo unspecified)
570 s | COc1nccnc1NC1CCN(C(=O)c2cccn2C)CC1
579 s | Cc1ccc(CNc2ccc3[nH]c(=O)[nH]c3c2)cc1
674 s | Cc1ccc(NC(=O)Cn2cnc3nc(N4CCCC(C(=O)NC5CC5)C4)sc3c2=O)cc1 (stereo unspecified)
719 s | COc1cc(NC(=O)CSC2CCc3ccccc3NC2=O)cc(OC)c1OC (stereo unspecified)
564 s | Cc1cc(C)n(CC(=O)N[C@@H]2CN(S(C)(=O)=O)C[C@H]2CN(C)C)n1
679 s | Cc1ccc2nc(CN3CCN(C(=O)Nc4ccccc4C)CC3)oc2c1
937 s | CCCS(=O)(=O)N1CCC(OCCOCc2ccccc2)CC1
743 s | CS(=O)(=O)N1CCC(CNC(=O)C(=O)Nc2cc(Cl)ccc2C#N)CC1
698 s | O=C(c1n[nH]c2c1CCCC2)N1CCC2(CC1)N=C(c1ccccc1)NO2
893 s | COC(=O)c1ccc(-c2nc3cnccn3c2Nc2ccccc2OC)cc1

RP-LC retention time | SMILES
996 s | COc1cccc2sc(N3CCN(c4ccccc4)CC3)nc12
653 s | COc1ccc(NC(=O)COc2cc(C)nc(N3CCCC3)n2)cc1Cl
591 s | CC(C)C(NC(=O)c1ccc([N+](=O)[O-])cc1)c1nc2ccccc2[nH]1 (stereo unspecified)
602 s | COc1ccccc1OCCCn1c(C2CCCO2)nc2ccccc21 (stereo unspecified)
958 s | CSc1ccc(C2c3[nH]c4ccccc4c3CCN2C(=O)c2ccncc2)cc1 (stereo unspecified)
878 s | CCCCS(=O)(=O)N1CCc2c(c(-c3nnc(SCC)n3CC)nn2C)C1
1030 s | O=c1n(Cc2cccc(C(F)(F)F)c2)nc2ccc(S(=O)(=O)N3CCCCC3)cn12
708 s | CCn1cc(CCNC(=O)c2c(F)cccc2Cl)c2cccnc21
1040 s | Cc1occc1-c1nnc2sc(COc3ccc(Br)cc3)nn12
748 s | O=C(NCc1ccccc1Br)c1ccc(-c2cncnc2)nc1
949 s | Cc1ccc(CNC(=O)Cn2c(C)cc(-c3nnc(-c4ccccc4)o3)c2C)cc1
822 s | CCN(CC)c1nc2ccsc2c(=O)n1CCC(=O)NCCc1c[nH]c2ccccc12
598 s | Cc1nc2ccn(Cc3cccnc3)c(=O)c2cc1C(=O)NCCc1ccco1
1420 s | CCn1nccc1-c1cccc(-c2noc(-c3ccc(C)c(C)c3)n2)c1
725 s | COc1ccc(N2CC(C(=O)NCCc3c[nH]c4ccccc34)CC2=O)cc1 (stereo unspecified)
982 s | O=C(NCCc1csc(-c2ccccc2)n1)C1CCN(S(=O)(=O)c2cccc(Cl)c2)CC1
565 s | Cc1c(CN2CC3(CCCCC3)CC2COc2ccncc2)cnn1C (stereo unspecified)
770 s | COc1cccc(N2C=C(C(=O)N3CCCC3)S(=O)(=O)c3ccccc32)c1
1040 s | Cc1cccc(NC(=O)CSc2cc(N3CCC(C)CC3)ncn2)c1
661 s | COc1ccc(NC(=O)Cn2nc3cc(-c4ccccc4)nc(C)n3c2=O)cc1
948 s | Cc1nc2cc(-c3noc(-c4ccccc4Br)n3)ccc2n(C)c1=O
1210 s | Cc1nc(-c2cc(S(=O)(=O)N3CCN(c4ccccc4F)CC3)c(C)s2)cs1
839 s | O=C(NC1CC1)c1ccc(OCC2CCN(C(=O)c3cc(F)ccc3Cl)CC2)cc1

RP-LC retention time | SMILES
638 s | CN(C)CCn1c2c(c(SCC(=O)Nc3ccc(F)c(F)c3)nc1=O)CCC2
772 s | CC1CCN(c2cncnc2-n2cc(NC(=O)Nc3cccc(F)c3)cn2)CC1
541 s | CN1CC(=O)NC(c2ccccc2Cl)C1=O (stereo unspecified)
770 s | COC(=O)c1c(C)[nH]c(C(=O)N2CCC(CC(=O)NCc3cccc(Cl)c3)CC2)c1C
642 s | Cc1[nH]c2ccc(-c3nnc(SCC(=O)NCc4nc5ccccc5[nH]4)o3)cc2c1C
1230 s | Cc1cccc(CNC(=O)c2cc(C(C)(C)C)n3nccc3n2)c1
804 s | Cc1ccc(F)cc1NC(=O)Cn1nc2nc(N3CCCC(C)C3)ccn2c1=O (stereo unspecified)
646 s | Cc1nnc2ccc(N3CCC(C(=O)N4CCN(c5ncccn5)CC4)CC3)nn12
662 s | CC1(C(=O)NCc2ccccc2)CN(S(C)(=O)=O)CC(=O)N1C1CC1 (stereo unspecified)
590 s | Cc1cc(C)c2c(N3CCOCC3)nc(C(=O)NCc3cc(F)ccc3F)nc2n1
675 s | CC(C)n1cnc2cc(CNC(=O)c3cccc(C(F)(F)F)c3)ccc21
722 s | O=C(NCCn1nnc2cc(C(=O)N3CCCC3)ccc21)Nc1cccc(Br)c1
1010 s | CCOC(=O)c1nc(NCc2ccccc2Cl)c2c(CC)noc2n1
646 s | Cc1nc(CCNC(=O)Cc2cccs2)no1
802 s | Cc1cccc(S(=O)(=O)NCc2c(-c3ccccc3)nc3sc(C)nn23)c1
801 s | CCOC(=O)c1nc(NCCc2ccc(OCC)c(OCC)c2)c2ccccc2n1
838 s | COc1ccc(N2C=C(C(=O)N3CCCC3)S(=O)(=O)c3ccc(F)cc32)cc1Cl
705 s | O=C(Cn1nc2n(c1=O)CCCCC2)NCc1ccccc1Br
971 s | O=C(Nc1ccccc1C(F)(F)F)C1CCCN(c2ccc(=O)n(-c3cccc(Cl)c3)n2)C1 (stereo unspecified)
619 s | Cc1nc2cccnc2n1CCN1CCN(C(=O)Nc2ccc(Br)cc2)CC1

SMILES | RP-LC retention time
COc1ccc(OC)c(S(=O)(=O)N2[C@H]3CC[C@@H]2c2cnc(-c4ccccc4)nc2C3)c1 | 1020 s
CCCn1cc(C(=O)NCc2ccc(N(C)C)cc2)c2cccnc21 | 630 s
